Results published in patent US10759777B2, “Carbazole-containing amides, carbamates, and ureas as cryptochrome modulators” (Synchronicity Pharma, Inc., priority 2014, dated 2020).

What was measured:
[1] = tested on: core clock gene mRNAs in liver; assay: Single dose at peak or nadir of Cry1 expression, liver core clock gene mRNAs; assay type: in vivo, mouse; conditions: single dose at ZT0 (peak) or ZT10 (nadir); liver 7.5 hours later
Experimental: For compounds that interact directly with the core clock mechanism, the time of dosing may be critical for maximizing their effects. […] The former (ZTO) is coincident with the peak of Cry1 and Bmal1 protein in mouse liver and the latter (ZT10) corresponds to the approximate nadir of Cry1 and Bmal1. Liver tissue was taken 7.5 hours later for each, and the samples were examined for core clock gene mRNAs by RT-qPCR.

C57/Bl6J DIO mice = assay: Compound 72 in diet-induced obesity (DIO) mouse model; assay type: in vivo; conditions: 100 mg/kg PO QD 7 days
From the text: Male C57/Bl6J DIO mice were obtained from The Jackson Laboratory (Sacramento, Calif.). […] Animals were accustomed to these conditions for at least 2 weeks before experimentation and used at approximately 24 weeks of age.
Significance was accepted when p<0.05.

[2] = tested on: rat model of cortisone-induced insulin resistance; assay: Cortisone induced insulin resistance in rats; assay type: in vivo; conditions: 50 mg/kg po with cortisone 30 mg/kg sc
Experimental: Animals were dosed with cortisone (30 mg/kg sc qd) in combination with test compounds for 6 days and then terminated 27 hours after the final dose of cortisone. A reference standard (Mifepristone) was also included. Cortisone 21-acetate (Sigma C-3130) was supplied by RenaSci and administered using a dose volume of 5 ml/kg via the subcutaneous route as a fine suspension in 1% methylcellulose. […] Mifepristone (Sigma M8046) was provided by RenaSci.
Glucose and insulin determinations were performed on plasma samples obtained from a tail vein bleed taken after a 12 h fast, approximately 27 h after the last cortisone dose. Animals were then terminated and a terminal (cardiac) blood sample taken from which plasma was prepared.
Thirty four male Sprague Dawley rats (weight range 200-250 g) were ordered from Charles River, Margate, Kent, UK. […] Subsequently, animals underwent a 3 day baseline period during which they were dosed once daily with vehicle at t=0 h (07:00). […] Body weight was recorded immediately before dosing began at 07:00 (t=0 h).
On Day 6 of dosing rats were fasted for 12 h beginning at 22:30 (timed to coincide with the Day 7 termination). […] At 10:30 on Day 7, 27 h after the final dose of cortisone, a blood sample (300 μl) was taken from the lateral tail vein into tubes containing EDTA (Sarstedt 16.444). The blood was centrifuged and resultant plasma aliquot stored at −75° C. The animals were euthanized by CO2 asphyxiation followed by cervical dislocation. Terminal blood (approximately 10 ml) was collected by cardiac puncture into tubes containing EDTA (Sarstedt 5 ml 32.332) and then centrifuged and plasma stored at −75° C. The tail vein plasma was analyzed for glucose (n=2) using a commercial clinical reagent (Thermoelectron Infinity glucose reagent (TR15421) and for insulin (n=1) using the Mercodia ultrasensitive rat insulin rat ELISA (10-1251-10).
Plasma glucose and insulin were analyzed by robust regression or general linear model with treatment as a factor and bleeding order and baseline body weight as covariates. A log transformation was used if appropriate. Appropriate multiple comparison tests (two-tailed) were used to determine significant differences from the vehicle group and from the Cortisone group. P<0.05 was considered to be statistically significant.

## O=C1NCCN1CC(O)Cn1c2ccc(F)cc2c2cc(F)ccc21 (stereo not shown) [Compound 72, 1-(3-(3,6-difluoro-9H-carbazol-9-yl)-2-hydroxypropyl)imidazolidin-2-one]
[1]
  impact on core clock mRNAs, dosing at peak vs nadir of Cry1: greater relative impact on the clock mRNAs at the peak compared to the nadir
C57/Bl6J DIO mice
  OGTT glucose course: much lower than the vehicle control group
  glucose AUC from OGTT: 17055+/−769.1 units
[2]
  fasted plasma insulin: 5.24 ± 1.11 ng/mL
